Assay type in all cases: cell-based
The target of assay [1] is T1, CDK9 (Homo sapiens, UniProt P50750).
T1 construct: host or cells: HEK293-CDK9-Hibit
Put plainly: HiBit Assay Protocol for CDK9 (HIBIT protein quantification, degradation). To be noted: HEK293-CDK9-Hibit cells, compound treatment for 6 hours; for Dmax: 6 h, read-out: CDK9 HIBIT Protein Quantification Maximum; for DC50: ABS DC50. The procedure: HiBit Assay Protocol for CDK9
• 1. The culture medium for HEK293-CDK9-Hibit cell was prepared using DMEM with 10% FBS. • 2. Cells were cultivated in T-75 flasks in a cell culture incubator set at 37° C., 5% CO2, 95% relative humidity. Cells were allowed to reach 80-90% confluence before detaching and splitting. • 3. Cultivated cells were rinsed in T-75 flasks with 5 mL PBS. Aspirated off. Added 1.5 mL trypsin, and incubated the cells at 37° C. for approximately 5 minutes or until the cells detached and floated. • 4. Trypsin was inactivated by adding excess serum containing medium. • 5. Cells were harvested from flask into cell culture medium and then the cell number was counted. HEK293-CDK9-Hibit cells were seeded into 384-well plate (cell density: 1.6×10^5 cells/well/50 uL medium) in DMEM medium according to the plate map below and were incubated overnight at 37° C. and 5% CO2. • Note: Cell Cultured Medium: 90% DMEM+10% FBS+1% Penicillin-Streptomycin Liquid
• 1. Test compounds were dissolved at 3 mM DMSO stock solution. Transferred 45 uL of stock solution to a 384 pp-plate. Perform 3-fold, 10-point dilution via transferring 15 uL compound into 30 uL DMSO by using TECAN liquid handler. • 2. The plates were spinned at room temperature at 1,000 RPM for 1 minute. • 3. Transferred 50 nL of diluted compound from compound source plate into the cell plate by Echo. • 4. After compound treatment for 6 hours, removed the plate from incubators and equilibrated at room temperature for 15 minutes. Prepared the HiBit reagent consists of the following ratios: 10 mL of Nano-Glo®-HiBiT Lytic Buffer, 200 uL of Nano-Glo®-HiBiT Lytic Substrate and 100 uL of LgBiT Protein, mixed thoroughly. Added 20 uL of HiBit reagent into each well and spinned the plates at room temperature at 1,000 RPM for 1 minute to be detected. Plates were then shaken at 600 RPM at room temperature for 20 minutes, and read by EnVision. • 5. The inhibition activity was calculated following the formula below:
[formula] • Note: Where HC was obtained from cells treated with 0.1% DMSO only; LC was obtained from culture medium only. • 6. The ABS DC50 was calculated by fitting the Curve using Xlfit (v5.3.1.3), equation 201: […]

In assay [2] the target is T2, CDK2 (Homo sapiens, UniProt P24941).
T2 construct: host or cells: HEK293-CDK2-Hibit
The assay can be described thus: HiBit Assay Protocol for CDK2 (HIBIT protein quantification, degradation). To be noted: HEK293-CDK2-Hibit cells, compound treatment for 6 hours; for DC50: ABS DC50. As for the experimental part:
HiBit Assay Protocol for CDK2
• 1. The culture medium for HEK293-CDK2-Hibit cells was prepared using DMEM with 10% FBS. • 2. Cells were cultivated in T-75 flasks in a cell culture incubator set at 37° C., 5% CO2, 95% relative humidity. Cells were allowed to reach 80-90% confluence before detaching and splitting. • 3. Cultivated cells were rinsed in T-75 flasks with 5 mL PBS. Aspirate off Added was 1.5 mL trypsin, and the cells were incubated at 37° C. for approximately 5 minutes or until the cells detached and floated. • 4. Trypsin was inactivated by adding excess serum containing medium. • 5. Cells were harvested from flask into cell culture medium and then the cell number was counted. HEK293-CDK2-Hibit cells were seeded into 384-well plate (cell density: 1.6×10^5 cells/well/50 uL medium) in DMEM medium according to the plate map below and incubated overnight at 37° C. and 5% CO2. • Note: Cell Cultured Medium: 90% DMEM+10% FBS+1% Penicillin-Streptomycin Liquid
(§1) • 1. Test compounds were dissolved at 10 mM DMS stock solution. 45 uL of stock solution was transferred to a 384 pp-plate. A 3-fold, 10-point dilution was performed via transferring 15 uL compound into 30 uL DMSO by using TECAN liquid handler. • 2. The plates were spinned at room temperature at 1,000 RPM for 1 minute. • 3. 50 nL of diluted compound was transferred from compound source plate into the cell plate by Echo. • 4. After compound treatment for 6 hours, the plate was removed from incubators and equilibrated at room temperature for 15 minutes. The HiBit reagent was prepared, consisting of the following ratios: 10 mL of Nano-Glo®-HiBiT Lytic Buffer, 200 μL of Nano-Glo®-HiBiT Lytic Substrate and 100 uL of LgBiT Protein, mixed thoroughly. 20 μL of HiBit reagent was added into each well and the plates were spinned at room temperature at 1,000 RPM for 1 minute to be detected. Then the plates were shaken at 600 RPM at room temperature for 20 minutes, and read by EnVision. • 5. The inhibition activity was calculated following the formula below:
(§2) [formula] • Note: Where HC is obtained from cells treated with […] only; LC is obtained from culture medium only. • 6. ABS DC50 was calculated by fitting the Curve using Xlfit (v5.3.1.3), equation 201: […]

In assay [3] the target is T3, CCNE1 (Homo sapiens, UniProt P24864).
T3 construct: host or cells: HEK293-CCNE1-Hibit
The assay can be described thus: HiBit Assay Protocol for CCNE1 (HIBIT protein quantification, degradation). To be noted: HEK293-CCNE1-Hibit cells, compound treatment for 6 hours. The procedure:
HiBit Assay Protocol for CCNE1
• 1. The culture medium for HEK293-CCNE1-Hibit cell was prepared using EMEM with […]. • 2. Cells were cultivated in T-75 flasks in a cell culture incubator set at 37° C., 5% CO2, 95% relative humidity. Cells were allowed to reach 80-90% confluence before detaching and splitting. • 3. Cultivated cells were rinsed in T-75 flasks with 5 mL PBS. Aspirate off Added was 1.5 mL trypsin, and the cells were incubated at 37° C. for approximately 5 minutes or until the cells detached and floated. • 4. Trypsin was inactivated by adding excess serum containing medium. • 5. Cells were harvested from flask into cell culture medium and then the cell number was counted. HEK293-CCNE1-Hibit cell were seeded into 384-well plate (cell density: 1.6×10^5 cells/well/50 uL medium) in EMEM medium according to the plate map below and incubated overnight at 37° C. and […]. • Note: Cell Cultured Medium: 90% EMEM+10% FBS+1% Penicillin-Streptomycin Liquid
as §1, with “mM DMSO” for “mM DMS”, “45 μL” for “45 uL”, “100 μL” for “100 uL”, “Protein, mix” for “Protein, mixed”
as §2
For orientation: With HiBiT, luminescence reflects the tagged protein that the partner subunit can reach.

Each structure is given as a SMILES string.

T1 sequence (P50750 whole entry): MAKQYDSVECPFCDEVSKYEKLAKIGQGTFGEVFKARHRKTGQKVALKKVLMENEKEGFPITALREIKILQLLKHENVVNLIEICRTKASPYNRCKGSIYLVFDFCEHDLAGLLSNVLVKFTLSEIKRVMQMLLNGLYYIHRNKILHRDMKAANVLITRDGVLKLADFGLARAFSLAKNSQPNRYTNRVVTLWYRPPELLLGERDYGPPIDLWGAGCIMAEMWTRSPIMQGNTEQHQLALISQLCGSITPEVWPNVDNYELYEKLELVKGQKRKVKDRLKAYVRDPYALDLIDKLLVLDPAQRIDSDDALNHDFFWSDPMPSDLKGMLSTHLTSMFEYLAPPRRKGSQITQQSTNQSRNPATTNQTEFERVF
T3 sequence (P24864 whole entry): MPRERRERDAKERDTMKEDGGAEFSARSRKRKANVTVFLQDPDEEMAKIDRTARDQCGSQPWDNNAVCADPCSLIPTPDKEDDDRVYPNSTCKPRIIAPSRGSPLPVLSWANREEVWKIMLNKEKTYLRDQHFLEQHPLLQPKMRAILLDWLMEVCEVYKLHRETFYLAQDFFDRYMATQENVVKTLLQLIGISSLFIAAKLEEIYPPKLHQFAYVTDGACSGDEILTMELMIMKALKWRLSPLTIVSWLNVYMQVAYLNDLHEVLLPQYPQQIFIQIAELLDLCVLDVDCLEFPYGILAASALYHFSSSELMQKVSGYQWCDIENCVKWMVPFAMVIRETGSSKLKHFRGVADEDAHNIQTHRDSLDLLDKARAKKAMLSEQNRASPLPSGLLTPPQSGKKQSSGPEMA

One may read the DC50 as the midpoint of the concentration-degradation curve. For `CC(C)[C@H]1CN([C@H](C)c2cccc(S(=O)(=O)N3CC[C@H](Nc4ncc5c(n4)N([C@@H]4CCC[C@@H](O)C4)C(=O)C54CC4)[C@H](F)C3)c2)CCN1c1ccc2c(N3CCC(=O)NC3=O)nn(C)c2c1` (stereo in doubt) [Compound 203], the Dmax in assay [1] amounted to 18%. In assay [2], the “CDK2 HIBIT Protein Quantification Maximum” value stood at 85% and the 50% degradation concentration (DC50) came to 10.2 nM. Also, the “CCNE1 HIBIT Protein Quantification Maximum” value in assay [3] is 34%.

With `CC1CCCC1N1C(=O)C2(CC2)c2cnc(NC3CCN(S(=O)(=O)N4CC5(CCN(C(=O)Cc6cccc7c6n(C)c(=O)n7C6CCC(=O)NC6=O)CC5)C4)CC3)nc21` (centres unmarked) [Compound 15], the Dmax in assay [1] is -3%. The “CDK2 HIBIT Protein Quantification Maximum” value in assay [2] is recorded as 27%. For the same molecule, the “CCNE1 HIBIT Protein Quantification Maximum” value in assay [3] was found to be 15%.

As for `CC1CCCC1N1C(=O)C2(CC2)c2cnc(NC3CCN(S(=O)(=O)N4CC5CN(C(=O)CCc6cccc7c6n(C)c(=O)n7C6CCC(=O)NC6=O)CC5C4)CC3)nc21` (centres unmarked) [Compound 16], in assay [1], the Dmax was determined as 57% and the half-maximal degradation concentration (DC50) is 3.67 nM. The “CDK2 HIBIT Protein Quantification Maximum” value in assay [2] amounted to 49%. Also, the “CCNE1 HIBIT Protein Quantification Maximum” value in assay [3] is 17%.

For `CC1CCCC1N1C(=O)C2(CC2)c2cnc(NC3CCN(S(=O)(=O)N4CCC5(CCCN5C(=O)CCc5cccc6c5n(C)c(=O)n6C5CCC(=O)NC5=O)C4)CC3)nc21` (centres unmarked) [Compound 17], the Dmax in assay [1] was 26%. Moreover, in assay [2], the “CDK2 HIBIT Protein Quantification Maximum” value is given as 54% and the DC50 amounted to 17 nM. The “CCNE1 HIBIT Protein Quantification Maximum” value in assay [3] is 26%.

With `CC1CCCC1N1C(=O)C2(CC2)c2cnc(NC3CCN(S(=O)(=O)N4CC5(CCCN(C(=O)CCc6cccc7c6n(C)c(=O)n7C6CCC(=O)NC6=O)C5)C4)CC3)nc21` (centres unmarked) [Compound 18], the Dmax in assay [1] was found to be 5%. Moreover, in assay [2], the “CDK2 HIBIT Protein Quantification Maximum” value was found to be 63% and the DC50 was 12 nM. Besides, in assay [3], the “CCNE1 HIBIT Protein Quantification Maximum” value is given as 20%.

As for `CC1CCCC1N1C(=O)C2(CC2)c2cnc(NC3CCN(S(=O)(=O)N4CC5(CN(C(=O)CCc6cccc7c6n(C)c(=O)n7C6CCC(=O)NC6=O)C5)C4)CC3)nc21` (centres unmarked) [Compound 19], the Dmax in assay [1] stood at 25%. Also, the “CDK2 HIBIT Protein Quantification Maximum” value in assay [2] turned out to be 19%. In addition, the “CCNE1 HIBIT Protein Quantification Maximum” value in assay [3] was found to be 26%.

Consider `CC1CCCC1N1C(=O)C2(CC2)c2cnc(NC3CCN(S(=O)(=O)N4CC5(CCN(C(=O)CCc6cccc7c6n(C)c(=O)n7C6CCC(=O)NC6=O)CC5)C4)CC3)nc21` (centres unmarked) [Compound 20], for which, in assay [1], the Dmax turned out to be 71% and half-maximal degradation (DC50) was put at 86.3 nM. Moreover, the “CDK2 HIBIT Protein Quantification Maximum” value in assay [2] is given as 46%. Further, the “CCNE1 HIBIT Protein Quantification Maximum” value in assay [3] turned out to be 29%.

Turning to `CC1CCCC1N1C(=O)C2(CC2)c2cnc(NC3CCN(S(=O)(=O)N4CCC5(CCN(C(=O)CCc6cccc7c6n(C)c(=O)n7C6CCC(=O)NC6=O)C5)C4)CC3)nc21` (centres unmarked) [Compound 21], the Dmax in assay [1] turned out to be 28%. In assay [2], the “CDK2 HIBIT Protein Quantification Maximum” value is recorded as 54% and the half-maximal degradation concentration (DC50) stood at 41 nM. Moreover, the “CCNE1 HIBIT Protein Quantification Maximum” value in assay [3] is recorded as 28%.

`CC1CCCC1N1C(=O)C2(CC2)c2cnc(NC3CCN(S(=O)(=O)N4CC(N(C)C(=O)CCCc5cccc6c5n(C)c(=O)n6C5CCC(=O)NC5=O)C4)CC3)nc21` (centres unmarked) [Compound 22, 4-(1-(2,6-dioxopiperidin-3-yl)-3-methyl-2-oxo-2,3-dihydro-1H-benzo[d]imidazol-4-yl)-N-methyl-N-(1-((4-((7′-(2-methylcyclopentyl)-6′-oxo-6′,7′-dihydrospiro[cyclopropane-1,5′-pyrrolo[2,3-d]pyrimidin]-2′-yl)amino)piperidin-1-yl)sulfonyl)azetidin-3-yl)butanamide]: the Dmax in assay [1] is 35%. Further, in assay [2], the “CDK2 HIBIT Protein Quantification Maximum” value is given as 57% and the DC50 is 44 nM. Moreover, in assay [3], the “CCNE1 HIBIT Protein Quantification Maximum” value came to 18%.

On to `CC1CCCC1N1C(=O)C2(CC2)c2cnc(NC3CCN(S(=O)(=O)N4CC5CN(C(=O)CCCc6cccc7c6n(C)c(=O)n7C6CCC(=O)NC6=O)CC5C4)CC3)nc21` (centres unmarked) [Compound 23], for which the Dmax in assay [1] worked out at 49%. Also, in assay [2], the “CDK2 HIBIT Protein Quantification Maximum” value was 64% and it took 98 nM to reach half-maximal degradation (DC50). In addition, the “CCNE1 HIBIT Protein Quantification Maximum” value in assay [3] turned out to be 20%.

Turning to `CC1CCCC1N1C(=O)C2(CC2)c2cnc(NC3CCN(S(=O)(=O)N4CCCC45CCN(C(=O)CCCc4cccc6c4n(C)c(=O)n6C4CCC(=O)NC4=O)C5)CC3)nc21` (centres unmarked) [Compound 24], the Dmax in assay [1] was -1%. Moreover, the “CDK2 HIBIT Protein Quantification Maximum” value in assay [2] is listed as 41%. Further, the “CCNE1 HIBIT Protein Quantification Maximum” value in assay [3] was 21%.

With `CC1CCCC1N1C(=O)C2(CC2)c2cnc(NC3CCN(S(=O)(=O)N4CCC5(CCCN5C(=O)CCCc5cccc6c5n(C)c(=O)n6C5CCC(=O)NC5=O)C4)CC3)nc21` (centres unmarked) [Compound 25], the Dmax in assay [1] came to 15%. For the same molecule, the “CDK2 HIBIT Protein Quantification Maximum” value in assay [2] is listed as 29%. The “CCNE1 HIBIT Protein Quantification Maximum” value in assay [3] is recorded as 25%.

Regarding `CC1CCCC1N1C(=O)C2(CC2)c2cnc(NC3CCN(S(=O)(=O)N4CC5(CCCCN5C(=O)CCCc5cccc6c5n(C)c(=O)n6C5CCC(=O)NC5=O)C4)CC3)nc21` (centres unmarked) [Compound 26], in assay [1], the Dmax was determined as 9%. For the same molecule, the “CDK2 HIBIT Protein Quantification Maximum” value in assay [2] worked out at 42%. Besides, the “CCNE1 HIBIT Protein Quantification Maximum” value in assay [3] was determined as 8%.

These data come from patent US20260070917A1, “CYCLIN DEPENDENT KINASE DEGRADERS AND METHODS OF USE THEREOF” (Differentiated Therapeutics Inc, priority 2023, published 2026).
